Assay results as given in patent publication US20110039779A1, “IGF-1R BINDING PROTEINS AND ANTAGONISTS” (priority 2007, published 2011).
Like-named read-outs stand apart in the source and are kept apart here.

How the values were obtained:
SW480 cells = format: cell-based
Experimental: For cell growth/density studies, a mitochondrial activity assay was used, as exemplified by the following. Cells (SW480, MCF-7S8) were propagated in complete medium (DME: F12, 10% FCS (SW 480) or 5% FCS (MCF-7S8, P/S)), trypsinized, and seeded in 96 well plates as 10,000 cells/well in medium with 0.5% FCS. All wells in the periphery were omitted and only filled with medium. […] All treatments are made in triplicates. […] Treatment was continued for 48 hours (SW480 cells) or 72 hours (MCF-7S8 cells) before quantification of the cell density. Media was exchanged each day. Media and peptides were diluted in DMSO. When measuring cell density, the volume of each well was adjusted to […] Pre-diluted WST-1 (1 ml+1.5 ml DME:F12) was added as 25 μL to each well including background samples. Three wells with media only served as background controls. The cells were incubated for 90 min protected against light in an incubator.

purified HIGF-1R = biological target: T1, purified HIGF-1R (Homo sapiens, UniProt P08069); assay: IGF-1R activation kinase assay; format: biochemical; details: FIG. 2
T1 construct: HIGF-1R was purified from a cell culture of BHK cells stably transfected with IGF-1R cDNA; made in house; host or cells: BHK cells stably transfected with IGF-1R cDNA
T1 sequence (P08069 31-736 limits assumed): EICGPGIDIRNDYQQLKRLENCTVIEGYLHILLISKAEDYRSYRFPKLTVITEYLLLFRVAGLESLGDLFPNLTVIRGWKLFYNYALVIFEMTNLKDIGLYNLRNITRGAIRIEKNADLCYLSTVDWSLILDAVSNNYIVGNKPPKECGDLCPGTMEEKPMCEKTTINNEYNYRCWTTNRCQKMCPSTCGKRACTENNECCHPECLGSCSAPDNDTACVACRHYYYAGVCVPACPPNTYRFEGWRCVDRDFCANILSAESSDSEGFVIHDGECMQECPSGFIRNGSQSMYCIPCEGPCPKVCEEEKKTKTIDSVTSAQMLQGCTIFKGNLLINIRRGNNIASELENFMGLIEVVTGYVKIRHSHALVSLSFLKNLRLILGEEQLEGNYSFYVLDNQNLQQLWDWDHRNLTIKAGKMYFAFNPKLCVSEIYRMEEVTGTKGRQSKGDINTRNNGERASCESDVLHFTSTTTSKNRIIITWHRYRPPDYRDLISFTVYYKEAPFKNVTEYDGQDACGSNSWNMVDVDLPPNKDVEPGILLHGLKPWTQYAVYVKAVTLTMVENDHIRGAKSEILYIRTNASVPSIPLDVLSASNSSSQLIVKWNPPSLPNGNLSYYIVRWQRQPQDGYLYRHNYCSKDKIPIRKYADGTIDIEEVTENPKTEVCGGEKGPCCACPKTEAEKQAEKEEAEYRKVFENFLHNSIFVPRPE
T1 sequence (P08069 741-1367 limits assumed): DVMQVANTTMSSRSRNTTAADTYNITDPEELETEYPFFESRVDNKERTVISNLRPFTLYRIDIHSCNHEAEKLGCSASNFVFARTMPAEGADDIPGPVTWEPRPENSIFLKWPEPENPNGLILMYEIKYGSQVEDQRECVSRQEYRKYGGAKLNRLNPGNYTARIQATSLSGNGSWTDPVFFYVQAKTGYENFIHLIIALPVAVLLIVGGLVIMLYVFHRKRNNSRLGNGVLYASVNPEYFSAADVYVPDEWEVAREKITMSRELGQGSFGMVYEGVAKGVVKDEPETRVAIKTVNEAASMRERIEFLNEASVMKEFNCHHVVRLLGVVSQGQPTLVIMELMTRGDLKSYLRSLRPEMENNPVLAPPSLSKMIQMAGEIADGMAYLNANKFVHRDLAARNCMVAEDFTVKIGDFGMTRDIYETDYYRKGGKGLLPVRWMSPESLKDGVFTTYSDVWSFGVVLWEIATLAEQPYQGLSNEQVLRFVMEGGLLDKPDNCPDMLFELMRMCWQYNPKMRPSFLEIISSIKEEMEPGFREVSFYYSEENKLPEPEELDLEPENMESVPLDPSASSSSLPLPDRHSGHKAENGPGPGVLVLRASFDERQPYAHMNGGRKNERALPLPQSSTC
Experimental: For determining IGF-1R activation with test peptides, a kinase assay, generally using the following conditions was employed. A solution of each test peptide in kinase buffer (Hepes 100 mM (pH 8.0), MgCl2 8 mM, MnCl2 6 mM, Triton X100 0.1% v/v, BSA 0.2% w/v, 4 μg/ml IRS-1 peptide (Biotin-[…] in PBS+1 mg/ml)) was prepared. Samples were mixed in a microtiter plate in triplicate. 50 μl 2× kinase buffer was added into each well. […] Volume was adjusted to 88 μL, before addition of purified HIGF-1R (2 μl/well). Plates were shaken and incubated for 50 min. at room temperature (RT). DTT and 10 μl/well ATP were added and the wells incubated for 10 min. before stopping the reaction by adding 10 μl stop-buffer (50 mM EDTA (pH 8.0))/well and shaking. The samples were then transferred to streptavidin coated plates and incubated for 1 hour at RT. The coated plates were aspirated and washed 3 times with TBS-T. […] P-tyr Ab-PO (Phosphotyrosine-RC20:HRPO (1:1000) in TBS-T) was added and each plate was incubated for 30 min at RT. The plates were aspirated and washed 3 times with TBS-T. 100 μl TMB-One-substrate (Kem-En-Tec Diagnostics A/S—Denmark) (preheated to RT) was then added and the plates further incubated for approximately 20 min at RT. This reaction was stopped by adding 10 μl H2SO4 and the plates were read in an ELISA-reader at […] within 5-10 min. thereafter. […]

[1] = first value of the cell: concentration needed to blunt the effect of 10 nM IGF-1, cells in words only = effect as reported, 48 hours
[2] = read-out: IC50 in SW480 (M) in presence of IGF-1/alone: in presence of IGF-1, first value of the cell: concentration needed to blunt the effect of 10 nM IGF-1, cells in words only = effect as reported, 48 hours

| Compound | IC50 in SW480 (M) in presence of IGF-1/alone: in presence of IGF-1 (SW480 cells; [1]) | also measured |
| --- | --- | --- |
| CC[C@H](C)[C@H](NC(=O)[C@H](CS)NC(=O)[C@H](CCCNC(=N)N)NC(=O)[C@H](CCCNC(=N)N)NC(=O)[C@H](CCCNC(=N)N)NC(=O)[C@H](Cc1c[nH]c2ccccc12)NC(=O)CNC(=O)[C@H](Cc1ccccc1)NC(=O)[C@H](CO)NC(=O)[C@@H]1CCCN1C(=O)[C@@H](NC(=O)CNC(=O)[C@H](CC(C)C)NC(=O)[C@H](CO)NC(=O)[C@H](CC(C)C)NC(=O)[C@H](CC(=O)O)NC(=O)[C@H](CC(C)C)NC(=O)[C@H](CC(C)C)NC(=O)[C@H](CS)NC(=O)CNC(=O)[C@H](Cc1ccc(O)cc1)NC(=O)[C@H](Cc1ccccc1)NC(=O)[C@@H]1CCC(=O)N1)C(C)C)C(=O)N[C@H](C(=O)N[C@@H](C)C(=O)O)[C@@H](C)O [Peptide F138P] | – | IC50 (SW480 cells): 5e-07 M; inhibition of basal growth of SW480, doses (SW480 cells; without IGF-1): > 100 nM |
| Ac-ESDVWAQPQRRNDWPGYHWLSR [Peptide F288] | No effect | – |
| Ac-SFYSCLESLVQGPAEKSRGQWEGCRX [Peptide F369] | – | IC50 (SW480 cells; read-out: IC50, inhibition of IGF-1 (10 nM)-induced proliferation of SW480 cells, experiment 13262-015): > 1e-05 M; IC50 (SW480 cells; read-out: IC50, inhibition of IGF-1 (10 nM)-induced proliferation of SW480 cells, experiment 13262-016): > 1e-05 M |
| Ac-VEGROLFYDLLROLLAMRRNG [Peptide F235] | No effect | inhibition of IGF-1R kinase activation by IGF-1 (purified HIGF-1R): completely inhibit |
| Ac-VGRASGPPENFYDWPGRQLSLQSGEQRR [Peptide F287] | No effect | – |
| DMGDVECEDPFYDWFACQVRDTEFDE [Peptide F115] | No effect | – |
| EERATPRWRGYEWFDAQVERE [Peptide F211] | No effect | – |
| EFGTGYGGDGGGYWSGYEWLAW [Peptide F207] | No effect | IC50 (SW480 cells; [2]): 2e-06 M |
| EFLTRLLERLGLSWERGEAGGPYAQAE [Peptide F175] | No effect | – |
| EFSGFCMGLERLSOVSLGYCGAGOGGE [Peptide F169] | – | IC50 (SW480 cells; [2]): 2e-06 M |
| EGLLFCKQLFTLAGLQPEAGCVSSSRE [Peptide F165] | No effect | – |
| EGRVDDAFYENFERQLGE [Peptide F213] | No effect | IC50 (SW480 cells; [2]): 2e-06 M |
| EIQRDCQGRPCGDAANFYDWFVQQDSE [Peptide F268] | No effect | – |
| EISFRCQLFVLAGMHPCPVDVGGEGFE [Peptide F170] | No effect | – |
| ELQGFCELLATVTGVTGLGCLDYQPIE [Peptide F202] | No effect | IC50 (SW480 cells; [2]): > 1e-05 M; IC50 in SW480 (M) in presence of IGF-1/alone: alone (SW480 cells; second value of the cell: concentration needed to inhibit basal level in 0.5% FCS): no effect |
| ELSFACLLSQLSGVVLPDCLLGEDE [Peptide F201] | No effect | – |
| ENRSGELWEGYGWFNMQVRGE [Peptide F212] | No effect | – |
| EVDRDCQARPCGDAANFYDWFGQQGTE [Peptide F269] | – | IC50 (SW480 cells; read-out: IC50 in SW480 (M) in presence of IGF-1/alone: alone, second value of the cell: concentration needed to inhibit basal level in 0.5% FCS): > 1e-05 M; IC50 (SW480 cells; [2]): 5e-07 M |
| EVTSAGQWEGYEWFLGALHAE [Peptide F210] | No effect | – |
